In data set [1] the target is T1, rat trace amine receptor (rTAR-1) (Rattus norvegicus, UniProt Q923Y9).
T1 construct: expressed in transfected cells
Put plainly: cAMP accumulation in HEK cells stably expressing rTAR-1. In kind it is cell-based. The procedure: To test this, the synthetic iodo-thyronamines were assayed for their ability to stimulate cAMP accumulation in human embryonic kidney (HEK) cells stably expressing rTAR-1, as well as cells transfected with an empty vector. […] To address the issue of receptor selectivity, all of the iodo-thyronamines were tested for their ability to activate the dopamine receptors and the β-adrenergic receptors.
(§1) cAMP Assay. HEK293 cells were harvested in Krebs-Ringer-HEPES buffer (KRH) and preincubated in KRH with 200 μM 3-isobutyl-methylxanthine. For drug treatments cells were incubated in KRH with 100 μM 3-isobutyl-1-methylxanthine with the test compound (or 10 μM forskolin) for 1 hour at 37° C. The cells were then boiled for 20 minutes after adding an equal volume of 0.5 mM sodium acetate buffer, centrifuged to remove cell debris, and the resulting extract was analyzed for cAMP content using competitive binding of [^3H]cAMP to a cAMP binding protein (Diagnostic Products Corp., Los Angeles, Calif.). Data were normalized according to protein content as determined using the Bradford reagent (Bio-Rad). Concentration-response curves were plotted and EC50 values calculated with Prism software (GraphPad, San Diego, Calif.).

Data set [2] deals with T2, mouse TAR-1 (Mus musculus, UniProt Q923Y8).
T2 construct: expressed in transfected cells
T2 sequence (Q923Y8 whole entry): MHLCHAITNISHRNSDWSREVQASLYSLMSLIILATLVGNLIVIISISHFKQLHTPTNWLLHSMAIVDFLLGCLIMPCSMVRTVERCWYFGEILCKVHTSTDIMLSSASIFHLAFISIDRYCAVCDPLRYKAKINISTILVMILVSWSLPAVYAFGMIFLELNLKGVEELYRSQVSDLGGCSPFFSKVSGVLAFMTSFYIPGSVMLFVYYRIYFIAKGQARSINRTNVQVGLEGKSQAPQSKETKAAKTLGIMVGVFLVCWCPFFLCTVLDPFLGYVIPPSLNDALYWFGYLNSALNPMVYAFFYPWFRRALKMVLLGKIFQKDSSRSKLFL
Put plainly: cAMP assay, activation of mouse TAR-1. In kind it is cell-based. The procedure:
as §1

For data set [3], the system named is C57Bl/6J mice. Description: core body temperature of mice injected intraperitoneally or intracerebrally. In kind it is in vivo. The settings on record: mouse, intraperitoneal or intracerebral injection. The procedure: Eight week old male C57 Black 6J (C57Bl/6J) mice were injected intraperitoneally (i.p.) with the indicated dose of 3-iodothyronamine (T1AM) dissolved in 60% DMSO and normal saline (pH 7.4). Mice were injected intraperitoneally with a dose of T1AM at 18.75, 37.5, or 75 mg/kg body weight. Core body temperature was measured as rectal temperature every 30 minutes for the first 2 hours and then again at 3, 4, and 24 hours post injection. The core body temperature response (with standard error) to each dose reflects the response of 7-8 mice in a room maintained at 24° C.
Core body temperature response was measured in an adult male C57Bl/6J mouse injected intraperitoneally with a dose of T1AM at 100 mg/kg T1AM. The mouse was implanted with a telemetry-emitting temperature sensing probe for more accurate measurement of core body temperature.
Thermal response was measured in an adult male C57Bl/6J mouse to a unilateral intracerebroventricular injection of T1AM dissolved in 60% DMSO/40% normal saline at a dose of 6.6 mg/kg body weight. The mouse was instrumented with a telemetry-emitting temperature sensing probe.

Data set [4] deals with C57Bl/6J mice. Put plainly: heart rate and blood pressure responses in mice. The following applies: mouse, i.p. approximately 75-80 mg/kg. In kind it is in vivo. The procedure: Heart rate and blood pressure responses were measured in an adult male C57Bl/6J mouse injected intraperitoneally with T1AM in 60% DMSO/40% normal saline at a dose of approximately 75-80 mg/kg body weight in two replicate experiments.
Heart rate and blood pressure responses were measured in two drug naive adult male C57Bl/6J mouse following intraperitoneal injection of T1AM at a dose of approximately 75 mg/kg body weight.

The test system of data set [5] is C57Bl/6J mice. Description: blood glucose levels of mice injected intraperitoneally. The following applies: 50 mg/kg. The data set is classed as in vivo, mouse. The procedure:
(BTC; ambient temperature −31° C.).

In data set [6] the test system is mice. Description: responses of mice within minutes of T1AM injection. The data set is classed as in vivo, mouse. The source says: (§2) One of the most consistent clinical findings in individuals with severe hypothyroidism is depression. […] The underlying mechanism of this potentiation remains to be elucidated. Other physiological manifestations of depression that may also have a TH component include thermoregulatory disturbances, decreased metabolic rate, decreased cardiorespiratory fitness, inactivity, and hyperglycemia. Recently we discovered 3-iodothyronamine (T1AM), a novel endogenous metabolite of TH (Scanlan et al., Nature Medicine 10:638, 2004) that is a potent agonist of rodent and human G protein-coupled trace amine associated receptors (Lindemann et al., Genomics 85:372, 2005).

The subject of data set [7] is ex vivo rat heart preparation. Put plainly: ex vivo rat heart preparation, cardiac output.
Description: as §2

Data set [8] can be described thus: i.v. serum half-life. The following applies: iv.

pEC50: −log10 of the molar value. Entries after “also recorded” stand apart in the source; their conditions may differ.

T1 sequence (Q923Y9 whole entry): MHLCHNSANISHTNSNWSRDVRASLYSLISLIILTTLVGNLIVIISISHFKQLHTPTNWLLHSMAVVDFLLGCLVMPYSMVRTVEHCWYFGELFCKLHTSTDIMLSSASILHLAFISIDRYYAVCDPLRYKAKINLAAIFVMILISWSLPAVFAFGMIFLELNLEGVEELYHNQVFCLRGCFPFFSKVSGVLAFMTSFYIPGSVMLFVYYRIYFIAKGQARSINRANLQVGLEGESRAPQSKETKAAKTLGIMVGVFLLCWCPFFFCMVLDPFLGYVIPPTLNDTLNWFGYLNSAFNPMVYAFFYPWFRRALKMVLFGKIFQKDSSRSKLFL

The term pEC50 denotes the negative decadic logarithm of the EC50, by convention in mol/L. A low value points to a high EC50. A word on the half-life: it is how long it takes for the measured level to halve. For `Cl.NCCc1ccc(Oc2ccc(O)cc2)c(I)c1` [Compound T1AM, 3-iodothyronamine Hydrochloride], in data set [1], the pEC50 was 7.85 and the “binding to the TAR receptor using a cAMP assay” value is “high affinity”. Further, the “increase in agonist potency for rTAR-1 relative to T0AM” value in data set [1] (addition of a single iodine atom to the 3-position of T0AM) is about 10 fold. This compound showed a pEC50 in data set [2] of 6.95. Besides, in data set [3], the “core body temperature after injection (decrease from approximately 38° C.)” value was “approximately 29 °C” and the “period of decreased core body temperature” value is 6.5 to 8 h. The “heart rate throughout the treatment period” value in data set [4] was “remained constant”. In addition, in data set [4] (Hydrochloride), the blood pressure entry was “varied with the drop in body core temperature, but recovered to normal levels; also recorded: varied with the drop in body core temperature, but returned to normal levels”. In addition, the “hyperglycemia when body temperature is held constant” value in data set [5] (body temperature near 37° C. (BTC; ambient temperature ~31° C.)) is given as “still significant, but the effect is smaller in magnitude”. Further, the blood glucose levels entry in data set [5] (i.p., room temperature (21° C.-22° C.), Hydrochloride) is listed as “increase blood glucose levels; also recorded: significant increase in blood sugar levels”. Moreover, the “response of mice within minutes of injection” value in data set [6] is “reduction in their metabolic rate, body temperature, locomotor activity, and heart rate while blood glucose becomes elevated”. In addition, the cardiac output entry in data set [7] is on record as “rapidly reduce cardiac output”. This compound came in with a half-life in data set [8] of 2 to 2.5 h.

Values taken from US7355079B2, “Thyronamine derivatives and analogs and methods of use thereof” (The Regents of the University of California, priority 2003, dated 2008).
